According to PubChem BioAssay (NCI):
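96-well plates; 48 h exposure; 5 concentrations. Endpoints by linear interpolation between flanking doses. Not reached: highest tested concentration assigned. The concentration for full growth arrest is given as TGI.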

What was measured:
Experiment in all cases: NCI tumour cell line growth inhibition, 48 h
DU-145 prostate = test system: DU-145 prostate
HT29 colon = test system: HT29 colon
HCT-15 colon = test system: HCT-15 colon
HOP-62 NSCLC = test system: HOP-62 NSCLC
NCI/ADR-RES ovarian = test system: NCI/ADR-RES ovarian
COLO 205 colon = test system: COLO 205 colon
RXF 393 renal = test system: RXF 393 renal
PC-3 prostate = test system: PC-3 prostate
M14 melanoma = test system: M14 melanoma
MALME-3M melanoma = test system: MALME-3M melanoma
CCRF-CEM leukemia = test system: CCRF-CEM leukemia
CAKI-1 renal = test system: CAKI-1 renal
UO-31 renal = test system: UO-31 renal
ACHN renal = test system: ACHN renal
OVCAR-4 ovarian = test system: OVCAR-4 ovarian
SK-MEL-2 melanoma = test system: SK-MEL-2 melanoma
IGROV1 ovarian = test system: IGROV1 ovarian
OVCAR-8 ovarian = test system: OVCAR-8 ovarian
SF-539 CNS = test system: SF-539 CNS
SK-MEL-5 melanoma = test system: SK-MEL-5 melanoma
KM12 colon = test system: KM12 colon
BT-549 breast = test system: BT-549 breast
K-562 leukemia = test system: K-562 leukemia
SF-268 CNS = test system: SF-268 CNS
MOLT-4 leukemia = test system: MOLT-4 leukemia
T-47D breast = test system: T-47D breast
SR leukemia = test system: SR leukemia
UACC-62 melanoma = test system: UACC-62 melanoma
TK-10 renal = test system: TK-10 renal
HL-60(TB) leukemia = test system: HL-60(TB) leukemia
U251 CNS = test system: U251 CNS
HCC-2998 colon = test system: HCC-2998 colon
SNB-19 CNS = test system: SNB-19 CNS
SK-MEL-28 melanoma = test system: SK-MEL-28 melanoma
SN12C renal = test system: SN12C renal
NCI-H522 lung = test system: NCI-H522 lung
MDA-MB-231 breast = test system: MDA-MB-231 breast
UACC-257 melanoma = test system: UACC-257 melanoma
786-0 renal = test system: 786-0 renal
MDA-N = test system: MDA-N
SW-620 colon = test system: SW-620 colon
NCI-H23 lung = test system: NCI-H23 lung
SK-OV-3 ovarian = test system: SK-OV-3 ovarian
SF-295 CNS = test system: SF-295 CNS
EKVX NSCLC = test system: EKVX NSCLC
HS 578T breast = test system: HS 578T breast
A549 NSCLC = test system: A549 NSCLC
NCI-H226 lung = test system: NCI-H226 lung
HCT-116 colon = test system: HCT-116 colon
MCF7 breast = test system: MCF7 breast
SNB-75 CNS = test system: SNB-75 CNS
LOX IMVI melanoma = test system: LOX IMVI melanoma
NCI-H460 lung = test system: NCI-H460 lung
OVCAR-5 ovarian = test system: OVCAR-5 ovarian
HOP-92 NSCLC = test system: HOP-92 NSCLC
OVCAR-3 ovarian = test system: OVCAR-3 ovarian
A498 renal = test system: A498 renal
MDA-MB-435 = test system: MDA-MB-435
RPMI-8226 leukemia = test system: RPMI-8226 leukemia

With `CC(=O)C(C)(C)CCC(C)(C)C(C)=O` the TGI (DU-145 prostate) was greater than 100 µM, the TGI (HT29 colon) was greater than 100 µM and the TGI (HCT-15 colon) was greater than 100 µM. For the same compound, the TGI (HOP-62 NSCLC) was greater than 100 µM, the TGI (NCI/ADR-RES ovarian) was greater than 100 µM and the TGI (COLO 205 colon) was greater than 100 µM. It also gave a TGI (RXF 393 renal) greater than 100 µM, a TGI (PC-3 prostate) greater than 100 µM and a TGI (M14 melanoma) greater than 100 µM. It also gave a TGI (MALME-3M melanoma) greater than 100 µM, a TGI (CCRF-CEM leukemia) greater than 100 µM and a TGI (CAKI-1 renal) greater than 100 µM. The TGI (UO-31 renal) was greater than 100 µM, the TGI (ACHN renal) was greater than 100 µM and the TGI (OVCAR-4 ovarian) was greater than 100 µM. The TGI (SK-MEL-2 melanoma) was greater than 100 µM, the TGI (IGROV1 ovarian) was greater than 100 µM and the TGI (OVCAR-8 ovarian) was greater than 100 µM. For the same compound, the TGI (SF-539 CNS) was greater than 100 µM, the TGI (SK-MEL-5 melanoma) was greater than 100 µM and the TGI (KM12 colon) was greater than 100 µM. For the same compound, the TGI (BT-549 breast) was greater than 100 µM, the TGI (K-562 leukemia) was greater than 100 µM and the TGI (SF-268 CNS) was greater than 100 µM. It also gave a TGI (MOLT-4 leukemia) greater than 100 µM, a TGI (T-47D breast) greater than 100 µM and a TGI (SR leukemia) greater than 100 µM. It also gave a TGI (UACC-62 melanoma) greater than 100 µM, a TGI (TK-10 renal) greater than 100 µM and a TGI (HL-60(TB) leukemia) greater than 100 µM. It also gave a TGI (U251 CNS) greater than 100 µM, a TGI (HCC-2998 colon) greater than 100 µM and a TGI (SNB-19 CNS) greater than 100 µM. The TGI (SK-MEL-28 melanoma) was greater than 100 µM, the TGI (SN12C renal) was greater than 100 µM and the TGI (NCI-H522 lung) was greater than 100 µM. It also gave a TGI (MDA-MB-231 breast) greater than 100 µM, a TGI (UACC-257 melanoma) greater than 100 µM and a TGI (786-0 renal) greater than 100 µM. The TGI (MDA-N) was greater than 100 µM, the TGI (SW-620 colon) was greater than 100 µM and the TGI (NCI-H23 lung) was greater than 100 µM. It also gave a TGI (SK-OV-3 ovarian) greater than 100 µM, a TGI (SF-295 CNS) greater than 100 µM and a TGI (EKVX NSCLC) greater than 100 µM. For the same compound, the TGI (HS 578T breast) was greater than 100 µM, the TGI (A549 NSCLC) was greater than 100 µM and the TGI (NCI-H226 lung) was greater than 100 µM. For the same compound, the TGI (HCT-116 colon) was greater than 100 µM, the TGI (MCF7 breast) was greater than 100 µM and the TGI (SNB-75 CNS) was greater than 100 µM. The TGI (LOX IMVI melanoma) was greater than 100 µM, the TGI (NCI-H460 lung) was greater than 100 µM and the TGI (OVCAR-5 ovarian) was greater than 100 µM.
In the case of `CCSC1=CC2(O)N(CCc3ccc(OC)c(OC)c3)C(=O)CC2(C(=O)OC)CC1=O` (configuration not stated), the TGI (DU-145 prostate) is reported as 32.6 µM, the TGI (HT29 colon) is reported as 32.9 µM and the TGI (HCT-15 colon) is reported as 72.7 µM. The TGI (HOP-62 NSCLC) was 34.7 µM, the TGI (NCI/ADR-RES ovarian) was greater than 100 µM and the TGI (COLO 205 colon) was greater than 100 µM. The TGI (PC-3 prostate) was 35.5 µM, the TGI (M14 melanoma) was 56.4 µM and the TGI (CCRF-CEM leukemia) was greater than 100 µM. It also gave a TGI (HOP-92 NSCLC) of 29.7 µM, a TGI (CAKI-1 renal) greater than 100 µM and a TGI (UO-31 renal) of 33.1 µM. The TGI (ACHN renal) was greater than 100 µM, the TGI (OVCAR-4 ovarian) was greater than 100 µM and the TGI (SK-MEL-2 melanoma) was 38.9 µM. For the same compound, the TGI (OVCAR-3 ovarian) was 33.6 µM, the TGI (IGROV1 ovarian) was 33.6 µM and the TGI (OVCAR-8 ovarian) was 31 µM. For the same compound, the TGI (SF-539 CNS) was 78.7 µM, the TGI (SK-MEL-5 melanoma) was greater than 100 µM and the TGI (KM12 colon) was 33.4 µM. The TGI (BT-549 breast) was 32.8 µM, the TGI (K-562 leukemia) was greater than 100 µM and the TGI (MOLT-4 leukemia) was 90.8 µM. For the same compound, the TGI (T-47D breast) was 48.5 µM, the TGI (SR leukemia) was 58.6 µM and the TGI (A498 renal) was greater than 100 µM. It also gave a TGI (UACC-62 melanoma) of 39.8 µM, a TGI (TK-10 renal) of 37.5 µM and a TGI (HL-60(TB) leukemia) of 73.5 µM. It also gave a TGI (U251 CNS) of 51.7 µM, a TGI (HCC-2998 colon) of 36 µM and a TGI (SNB-19 CNS) greater than 100 µM. It also gave a TGI (SK-MEL-28 melanoma) greater than 100 µM, a TGI (SN12C renal) of 36.3 µM and a TGI (MDA-MB-231 breast) of 35.4 µM. The TGI (UACC-257 melanoma) was 34.6 µM, the TGI (786-0 renal) was 34 µM and the TGI (MDA-N) was greater than 100 µM. It also gave a TGI (SW-620 colon) of 59 µM, a TGI (NCI-H23 lung) of 33.2 µM and a TGI (SK-OV-3 ovarian) greater than 100 µM. For the same compound, the TGI (SF-295 CNS) was greater than 100 µM, the TGI (EKVX NSCLC) was greater than 100 µM and the TGI (A549 NSCLC) was greater than 100 µM. It also gave a TGI (MDA-MB-435) of 46 µM, a TGI (NCI-H226 lung) greater than 100 µM and a TGI (HCT-116 colon) of 32.1 µM. The TGI (MCF7 breast) was 40.3 µM, the TGI (LOX IMVI melanoma) was 37.3 µM and the TGI (RPMI-8226 leukemia) was 91.3 µM. It also gave a TGI (OVCAR-5 ovarian) greater than 100 µM.
In the case of `COc1ccc2cc(C(C)C(=O)N3C(=O)OCC3(C)C)ccc2c1` (configuration not stated), the TGI (DU-145 prostate) is reported as greater than 100 µM, the TGI (HT29 colon) is reported as greater than 100 µM and the TGI (HCT-15 colon) is reported as greater than 100 µM. The TGI (HOP-62 NSCLC) was greater than 100 µM, the TGI (NCI/ADR-RES ovarian) was greater than 100 µM and the TGI (COLO 205 colon) was greater than 100 µM. The TGI (PC-3 prostate) was greater than 100 µM, the TGI (M14 melanoma) was greater than 100 µM and the TGI (MALME-3M melanoma) was greater than 100 µM. The TGI (HOP-92 NSCLC) was greater than 100 µM, the TGI (UO-31 renal) was greater than 100 µM and the TGI (ACHN renal) was greater than 100 µM. It also gave a TGI (OVCAR-4 ovarian) greater than 100 µM, a TGI (OVCAR-3 ovarian) greater than 100 µM and a TGI (IGROV1 ovarian) greater than 100 µM. It also gave a TGI (OVCAR-8 ovarian) greater than 100 µM, a TGI (SK-MEL-5 melanoma) greater than 100 µM and a TGI (BT-549 breast) greater than 100 µM. For the same compound, the TGI (K-562 leukemia) was greater than 100 µM, the TGI (SF-268 CNS) was greater than 100 µM and the TGI (MOLT-4 leukemia) was greater than 100 µM. The TGI (T-47D breast) was greater than 100 µM, the TGI (SR leukemia) was greater than 100 µM and the TGI (A498 renal) was greater than 100 µM. The TGI (UACC-62 melanoma) was greater than 100 µM, the TGI (TK-10 renal) was greater than 100 µM and the TGI (HL-60(TB) leukemia) was greater than 100 µM. For the same compound, the TGI (U251 CNS) was greater than 100 µM, the TGI (HCC-2998 colon) was greater than 100 µM and the TGI (SNB-19 CNS) was greater than 100 µM. It also gave a TGI (SK-MEL-28 melanoma) greater than 100 µM, a TGI (SN12C renal) greater than 100 µM and a TGI (MDA-MB-231 breast) greater than 100 µM. For the same compound, the TGI (UACC-257 melanoma) was greater than 100 µM, the TGI (786-0 renal) was greater than 100 µM and the TGI (MDA-N) was greater than 100 µM. It also gave a TGI (SW-620 colon) greater than 100 µM, a TGI (NCI-H23 lung) greater than 100 µM and a TGI (SK-OV-3 ovarian) greater than 100 µM. The TGI (SF-295 CNS) was greater than 100 µM, the TGI (EKVX NSCLC) was greater than 100 µM and the TGI (A549 NSCLC) was greater than 100 µM. It also gave a TGI (MDA-MB-435) greater than 100 µM, a TGI (NCI-H226 lung) greater than 100 µM and a TGI (HCT-116 colon) greater than 100 µM. It also gave a TGI (MCF7 breast) greater than 100 µM, a TGI (SNB-75 CNS) greater than 100 µM and a TGI (LOX IMVI melanoma) greater than 100 µM. The TGI (NCI-H460 lung) was greater than 100 µM, the TGI (RPMI-8226 leukemia) was greater than 100 µM and the TGI (OVCAR-5 ovarian) was greater than 100 µM.
